{"source": "ChEMBL document CHEMBL4184147", "about": "“Polyphenolic Phytochemicals in Cancer Prevention and Therapy: Bioavailability versus Bioefficacy” (J Med Chem, 2017)", "key": {"Lipid bilayer": {"test_system": "Lipid bilayer", "test": "Induction of DOPC/n-decane bilayer property changes assessed as concentration required to double gramicidin-induced quencher influx rate by […]"}, "[1]": {"test": "Displacement of [3H]resveratrol from Sprague-Dawley rat brain plasma membranes after 1 hr by beta counting method", "assay_type": "cell membranes"}}}
{"smiles": "COc1cc(CNC(=O)CCCC/C=C/C(C)C)ccc1O", "values": [{"measurement": "Activity", "setting": "Lipid bilayer", "value": 18, "unit": "µM"}]}
{"smiles": "O=C(O[C@@H]1Cc2c(O)cc(O)cc2O[C@@H]1c1ccc(O)c(O)c1)c1cc(O)c(O)c(O)c1", "note": "[EPICATECHIN GALLATE]", "values": [{"measurement": "Ki", "setting": "[1]", "value": "25 to 45", "unit": "nM"}]}
